ChEMBL document CHEMBL1201862, “PubChem BioAssay data set” (2004)
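Assay format: 96-well plates, 48-hour exposure. GI50: concentration for 50% inhibition of growth.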 The source made the active and inactive calls. No stated cut-off is given here; in the data, active = GI50 up to about 1.1 µM and inactive = higher.

Legend:
Experiment in all cases: DTP human tumour cell line panel, 48 h
[1] = test system: ACHN
[2] = test system: IGROV-1
[3] = test system: HOP-18
[4] = test system: HCT-116
[5] = test system: SN12C
[6] = test system: KM-20L2
[7] = test system: NCI-H522
[8] = test system: SF-539
[9] = test system: LXFL 529
[10] = test system: TK-10
[11] = test system: DMS-273
[12] = test system: M19-MEL
[13] = test system: NCI-H226
[14] = test system: HCC 2998
[15] = test system: OVCAR-4
[16] = test system: KM12
[17] = test system: LOX IMVI
[18] = test system: UO-31
[19] = test system: DMS-114
[20] = test system: Malme-3M
[21] = test system: COLO 205
[22] = test system: OVCAR-3
[23] = test system: CCRF-CEM
[24] = test system: UACC-62
[25] = test system: 786-0
[26] = test system: A549
[27] = test system: A498
[28] = test system: SF-295
[29] = test system: SW-620
[30] = test system: SK-MEL-28
[31] = test system: XF498
[32] = test system: M14
[33] = test system: SK-OV-3
[34] = test system: HOP-62
[35] = test system: HCT-15
[36] = test system: HL-60
[37] = test system: K562
[38] = test system: OVCAR-8
[39] = test system: DLD-1
[40] = test system: SNB-78
[41] = test system: RXF 393
[42] = test system: OVCAR-5
[43] = test system: SNB-75
[44] = test system: SK-MEL-2
[45] = test system: EKVX
[46] = test system: U-251
[47] = test system: UACC-257
[48] = test system: RPMI-8226
[49] = test system: SNB-19
[50] = test system: MOLT-4
[51] = test system: SR
[52] = test system: NCI-H460
[53] = test system: CAKI-1
[54] = test system: SF-268
[55] = test system: SK-MEL-5
[56] = test system: PC-3
[57] = test system: DU-145
[58] = test system: HOP-92
[59] = test system: Hs-578T
[60] = test system: MDA-N
[61] = test system: T47D
[62] = test system: RXF 631
[63] = test system: MDA-MB-231
[64] = test system: NCI-H23
[65] = test system: MDA-MB-435
[66] = test system: MCF7
[67] = test system: BT-549
[68] = test system: HT-29

Cc1cc2c(cc1C)NC(=O)C(NC(=O)/C=C/c1ccccc1)C=N2 (stereo not given)
GI50 [1]: 41.9 µM (inactive)
GI50 [2]: 34.8 µM (inactive)
GI50 [3]: 37.5 µM (inactive)
GI50 [4]: 20.8 µM (inactive)
GI50 [5]: 38.8 µM (inactive)
GI50 [6]: 45.3 µM (inactive)
GI50 [7]: 16.3 µM (inactive)
GI50 [8]: 24.8 µM (inactive)
GI50 [9]: 27.9 µM (inactive)
GI50 [10]: 50.6 µM (inactive)
GI50 [11]: 29 µM (inactive)
GI50 [12]: 33.3 µM (inactive)
GI50 [13]: 95.3 µM (inactive)
GI50 [14]: 48.6 µM (inactive)
GI50 [15]: 38.9 µM (inactive)
GI50 [16]: 19.5 µM (inactive)
GI50 [17]: 22.7 µM (inactive)
GI50 [18]: 29.6 µM (inactive)
GI50 [19]: 12.3 µM (inactive)
GI50 [20]: 35.9 µM (inactive)
GI50 [21]: 18.1 µM (inactive)
GI50 [22]: 20.1 µM (inactive)
GI50 [23]: 3.56 µM (inactive)
GI50 [24]: 34.8 µM (inactive)
GI50 [25]: 30.3 µM (inactive)
GI50 [26]: 30.7 µM (inactive)
GI50 [27]: 37.2 µM (inactive)
GI50 [28]: 50.8 µM (inactive)
GI50 [29]: 4.73 µM (inactive)
GI50 [30]: 72.3 µM (inactive)
GI50 [31]: 28 µM (inactive)
GI50 [32]: 34 µM (inactive)
GI50 [33]: 74.8 µM (inactive)
GI50 [34]: > 100 µM (inactive)
GI50 [35]: 17.7 µM
GI50 [36]: 21.9 µM (inactive)
GI50 [37]: 22.5 µM (inactive)
GI50 [38]: 38.2 µM (inactive)
GI50 [39]: 28.2 µM (inactive)
GI50 [40]: 66.7 µM (inactive)
GI50 [41]: 16.1 µM (inactive)
GI50 [42]: > 100 µM (inactive)
GI50 [43]: 44.1 µM (inactive)
GI50 [44]: 24.5 µM (inactive)
GI50 [45]: > 100 µM (inactive)
GI50 [46]: 23.9 µM (inactive)
GI50 [47]: 24.3 µM (inactive)
GI50 [48]: 25.5 µM (inactive)
GI50 [49]: 64.3 µM (inactive)
GI50 [50]: 20.7 µM (inactive)
GI50 [51]: 20.8 µM (inactive)
GI50 [52]: 30.8 µM (inactive)
GI50 [53]: 31.3 µM (inactive)
GI50 [54]: 29.9 µM (inactive)
GI50 [55]: 29.9 µM (inactive)

C[C@]12CCNC(=O)C=C1CC[C@@H]1C2CC[C@@]2(C)C1CC[C@@H]2OC(=O)COc1ccc(N(CCCl)CCCl)cc1 (stereo not given in full)
GI50 [56]: > 10 µM (inactive)
GI50 [1]: 0.982 µM (active)
GI50 [2]: 13.1 µM (inactive)
GI50 [3]: 18.8 µM (inactive)
GI50 [57]: 4.54 µM (inactive)
GI50 [4]: 3.73 µM (inactive)
GI50 [5]: 4.65 µM (inactive)
GI50 [6]: 14.4 µM (inactive)
GI50 [7]: 1.65 µM (inactive)
GI50 [8]: 2.07 µM (inactive)
GI50 [9]: 7.57 µM (inactive)
GI50 [10]: 17.6 µM (inactive)
GI50 [11]: 0.638 µM (active)
GI50 [12]: 4.91 µM (inactive)
GI50 [58]: 7.73 µM (inactive)
GI50 [13]: 13.1 µM (inactive)
GI50 [14]: 3.84 µM (inactive)
GI50 [15]: 6.11 µM (inactive)
GI50 [16]: 8.28 µM (inactive)
GI50 [17]: 3.21 µM (inactive)
GI50 [18]: 4.76 µM (inactive)
GI50 [59]: 17.7 µM (inactive)
GI50 [20]: 8.45 µM (inactive)
GI50 [21]: 9.08 µM (inactive)
GI50 [22]: 3.05 µM (inactive)
GI50 [60]: 13.3 µM (inactive)
GI50 [23]: 0.326 µM (active)
GI50 [24]: 1.28 µM (inactive)
GI50 [25]: 0.964 µM (active)
GI50 [26]: 5.37 µM (inactive)
GI50 [27]: 18.6 µM (inactive)
GI50 [28]: 8.09 µM (inactive)
GI50 [29]: 2.23 µM (inactive)
GI50 [30]: 17 µM (inactive)
GI50 [61]: 1.88 µM (inactive)
GI50 [31]: 1.35 µM (inactive)
GI50 [32]: 6.35 µM (inactive)
GI50 [33]: 6.27 µM (inactive)
GI50 [62]: 4.71 µM (inactive)
GI50 [63]: 17.5 µM (inactive)
GI50 [34]: 2.84 µM (inactive)
GI50 [35]: 2.68 µM
GI50 [36]: 1.32 µM (inactive)
GI50 [37]: 2.91 µM (inactive)
GI50 [38]: 4.09 µM (inactive)
GI50 [64]: 2.99 µM (inactive)
GI50 [65]: 21.8 µM (inactive)
GI50 [39]: 4.56 µM (inactive)
GI50 [40]: 28.6 µM (inactive)
GI50 [41]: 4.37 µM (inactive)
GI50 [42]: 12.6 µM (inactive)
GI50 [66]: 1.29 µM (inactive)
GI50 [43]: 8.75 µM (inactive)
GI50 [44]: 18.5 µM (inactive)
GI50 [67]: 17.5 µM (inactive)
GI50 [45]: 16.1 µM (inactive)
GI50 [68]: 8.59 µM (inactive)
GI50 [46]: 2.03 µM (inactive)
GI50 [47]: 13.8 µM (inactive)
GI50 [48]: 4.65 µM (inactive)
GI50 [49]: 10.8 µM (inactive)
GI50 [50]: 0.145 µM (active)
GI50 [51]: 0.138 µM (active)
GI50 [52]: 0.308 µM (active)
GI50 [53]: 4.15 µM (inactive)
GI50 [54]: 2.74 µM (inactive)
GI50 [55]: 7.33 µM (inactive)

CCc1nc2ccccc2c(=O)n1/N=C(\N=N\c1ccc(Cl)cc1)c1ccccc1Cl
GI50 [1]: 43.2 µM (inactive)
GI50 [2]: > 100 µM (inactive)
GI50 [3]: 20 µM (inactive)
GI50 [4]: 26.8 µM (inactive)
GI50 [5]: 57.3 µM (inactive)
GI50 [6]: 48.3 µM (inactive)
GI50 [7]: > 10 µM (inactive)
GI50 [8]: 47.4 µM (inactive)
GI50 [9]: 23.4 µM (inactive)
GI50 [10]: 82.8 µM (inactive)
GI50 [11]: 38.7 µM (inactive)
GI50 [12]: > 100 µM (inactive)
GI50 [58]: 20.2 µM (inactive)
GI50 [17]: 53.2 µM (inactive)
GI50 [18]: 18.2 µM (inactive)
GI50 [19]: 20.1 µM (inactive)
GI50 [21]: 52.6 µM (inactive)
GI50 [24]: > 100 µM (inactive)
GI50 [25]: 67.8 µM (inactive)
GI50 [27]: 51.9 µM (inactive)
GI50 [28]: 54.7 µM (inactive)
GI50 [30]: 23.5 µM (inactive)
GI50 [31]: 18.5 µM (inactive)
GI50 [32]: 68.5 µM (inactive)
GI50 [33]: 60.7 µM (inactive)
GI50 [62]: > 100 µM (inactive)
GI50 [34]: 39.3 µM (inactive)
GI50 [35]: 68.2 µM
GI50 [38]: 39.5 µM (inactive)
GI50 [64]: 82.8 µM (inactive)
GI50 [41]: 21.1 µM (inactive)
GI50 [45]: 2.11 µM (inactive)
GI50 [68]: 50.9 µM (inactive)
GI50 [46]: 49.7 µM (inactive)
GI50 [50]: 26.1 µM (inactive)
GI50 [52]: 50.4 µM (inactive)
GI50 [53]: 65.5 µM (inactive)
GI50 [54]: 28 µM (inactive)
